# From patent US20220049238A1, “Synthetic Matrix Assembled and Rapidly Templated Spheroids, Organoids and 3D Cell Cultures” (Rutgers, The State University of New Jersey, priority 2020, published 2022)
# Tested on: IPSC-NSC
# Test: Neuronal differentiation of hybrid spheroids with DAPT loaded on nanosheets (qPCR, immunostaining)
# Format: cell-based
# Experimental: Lastly, because Mn^2+ ions are MRI active, they could be used for MRI monitoring of degradation and drug release. A 7-day degradation study was performed, and it was shown that the Mn2+ ions generated correlated with the amount of the fluorescent model drug that was released, showing that the drug was released through the degradation of the scaffold nanosheets. After confirming the drug loading and degradation properties of the scaffold nanosheets and the hybrid spheroids, varying concentrations of DAPT were then loaded on the surface of the nanosheets at […] of from 0 to 50 μM. The spheres were cultured for 7 days and then the neuronal differentiation was analyzed using both qPCR and immunostaining.
# [1] = day 7, loaded concentration of 5 and 10 μM
smiles,measurement,setting,value
"C[C@H](NC(=O)Cc1cc(F)cc(F)c1)C(=O)N[C@H](C(=O)OC(C)(C)C)c1ccccc1 [DAPT, N-[N-(3,5-difluorophenacetyl)-L-alanyl]-S-phenylglycine t-butyl ester]",cell death,50 μM condition,significant cell death
same,neurogenesis,50 μM condition,impaired neurogenesis
same,Tuj1 positive cells by immunostaining,[1],significant increase in Tuj1 positive cells
same,axon length,[1],longer axons
same,increase in mRNA expression of Tuj1,[1],ca. 1.8 fold
same,mature phenotype markers Map2 and NeuN (qPCR and immunostaining),[1],increase in mature phenotype markers
